Patent US20060140872A1, “Novel signaling pathway for the production of inglammatory pain and neuropathy” (KOWA CO., LTD., priority 2003, published 2006)

System: allergic contact dermatitis (picryl chloride-induced dermatitis)
Experiment: Mouse model of picryl chloride-induced dermatitis (auricle thickness)
Format: in vivo, mouse (female BALB/C)
Conditions: applied on left auricle 1 hour before induction; thickness 24 hours after induction; dose not given; FIG. 2

Structure (SMILES): COc1cccc(-c2cc(=O)c3ccccc3o2)c1N [PD98059, 2-(2-amino-3-methoxyphenyl)-4-oxo-4H-[1]benzopyran]
- suppressive action for allergic contact dermatitis (difference in auricle thickness): exhibited suppressive action for allergic contact dermatitis
